Columns and labels:
Type in all cases: cell-based
MOLM-13 cells [1] = assay: Metabolic activity, resazurin staining, MOLM-13; settings: for Metabolic activity, mean percentage ± SE: 72 h, relative to control
Method: [The source words this procedure for another cell line and reports this cell line under the same test.] (§1) Acute myeloid leukemia cell line HL-60 and multiple myeloma cell lines AMO-1 and KMS-12-PE were obtained from the German Collection of Microorganisms and Cell Cultures (DSMZ), Braunschweig, Germany, and non-tumorigenic stromal cell line HS-5 was acquired from the American Type Culture Collection (ATCC, Manassas, VA, USA). All cell lines were cultured in RPMI 1640 medium without phenol red (Pan Biotech, Aidenbach, Germany), supplemented with 2 mM glutamine, 100 U/mL penicillin, 100 µg/mL streptomycin (Sigma-Aldrich, St. Louis, MO, USA), and 10% fetal bovine serum (FBS Maximus, Catus Biotech GmbH, Tutzing, Germany) at 37 °C in a humidified atmosphere of 5% CO2/95% air. Cells were fed twice weekly. Logarithmically growing cells were resuspended at 1 × 10^5 cells/mL, plated in triplicate in round-bottom 96-well plates (100 µL per well; Falcon, Becton Dickinson, Franklin Lakes, NJ, USA), and incubated at 37 °C in 5% CO2/95% air for 2 h. Subsequently, the compounds were adjusted in the cell culture medium to reach the final concentrations in a total volume of 150 µL and incubated for an additional 72 h. Cell proliferation was assessed by [^3H]-thymidine uptake. Each well was exposed to 2 µCi [^3H]-thymidine (Hartmann Analytic, Braunschweig, Germany) during the final 12–16 h of incubation. Cells were harvested using a semi-automated device, and [^3H]-thymidine incorporation (expressed in counts per minute, cpm) was measured with a scintillation counter (MicroBeta TriLux, PerkinElmer, Waltham, MA, USA). Metabolic activity was assessed by resazurin staining. Resazurin (Carl Roth, Karlsruhe, Germany) was dissolved in distilled water at a concentration of 0.1 mg/mL, and 15 µL of this solution was added to each well, followed by a 2 h incubation at 37 °C. Relative fluorescence units (RFUs) were measured using a Synergy H1 plate reader equipped with a 560 nm excitation/590 nm emission filter set (BioTek; Agilent, Santa Clara, CA, USA). Proliferation and metabolic activity in the absence of compounds were defined as 100% (control), and the values for compound-treated samples were expressed as percentages relative to the control. Selectivity indices were calculated by dividing the IC50 value of each compound against HS-5 cells through the IC50 values against the investigated cell lines.
(§2) The Wilcoxon Rank Sum Test was used to analyze proliferation and metabolic activity in the absence and presence of varying compound concentrations (NCSS 2007 software, version 07.1.2, Kaysville, UT, USA). A p-value < 0.05 was considered statistically significant. IC50 values were calculated using GraphPad Prism 10.1.2. This software reports 95% confidence intervals instead of standard errors. […] Nonetheless, the figures clearly illustrate the IC50 values due to the narrow concentration range tested.
(§3) Proliferation inhibition often leads to cell death. Therefore, the cytotoxic activity of the compounds was further evaluated using a modified 3-(4,5-dimethylthiazol-2-yl)-2,5-diphenyltetrazolium bromide (MTT) assay, the resazurin (Alamar Blue) assay. Metabolically active cells reduce the non-fluorescent dye resazurin to the fluorescent dye resorufin via mitochondrial reductase activity, which correlates with cell viability. In the first step the metabolic activity of the four isolated flavonoids was investigated, showing a dose-dependent reduction, but to a much lower extent than in the proliferation assays (Table A2). In fact, only 7,3′,4′-trimethoxymyricetin (2) inhibited the metabolic activity of all four cell lines by more than 50% at a concentration of 100 µM.

AMO-1 cells [2] = assay: Metabolic activity, resazurin staining, AMO-1; settings: for Metabolic activity, mean percentage ± SE: 72 h, relative to control
Method: as §1, §2, §3

HL-60 cells [3] = assay: Metabolic activity, resazurin staining, HL-60; settings: for Metabolic activity, mean percentage ± SE: 72 h, relative to control
Method: as §1, §2, §3

KMS-12-PE cells [4] = assay: Metabolic activity, resazurin staining, KMS-12-PE; settings: KMS-12 PE; for Metabolic activity, mean percentage ± SE: 72 h, relative to control
Method: as §1, §2, §3

HL-60 cells [5] = assay: Proliferation, [3H]-thymidine uptake, HL-60; settings: for mean percentage of proliferation ± SE: 72 h, relative to control
Method: as §1, §2

KMS-12-PE cells [6] = assay: Proliferation, [3H]-thymidine uptake, KMS-12-PE; settings: KMS-12 PE, 72 h, relative to control
Method: as §1, §2

AMO-1 cells [7] = assay: Proliferation, [3H]-thymidine uptake, AMO-1; settings: 72 h, relative to control
Method: as §1, §2

MOLM-13 cells [8] = assay: Proliferation, [3H]-thymidine uptake, MOLM-13; settings: for mean percentage of proliferation ± SE: 72 h, relative to control
Method: [The source words this procedure for another cell line and reports this cell line under the same test.] as §1, §2

SMILES | Metabolic activity, mean percentage ± SE (MOLM-13 cells [1]; MOLM-13, 25 µM) [%] | Metabolic activity, mean percentage ± SE (MOLM-13 cells [1]; MOLM-13, 50 µM) [%] | Metabolic activity, mean percentage ± SE (MOLM-13 cells [1]; MOLM-13, 100 µM) [%] | Metabolic activity, mean percentage ± SE (AMO-1 cells [2]; AMO-1, 25 µM) [%] | Metabolic activity, mean percentage ± SE (AMO-1 cells [2]; AMO-1, 50 µM) [%] | Metabolic activity, mean percentage ± SE (AMO-1 cells [2]; AMO-1, 100 µM) [%] | Metabolic activity, mean percentage ± SE (HL-60 cells [3]; HL-60, 25 µM) [%] | Metabolic activity, mean percentage ± SE (HL-60 cells [3]; HL-60, 50 µM) [%] | Metabolic activity, mean percentage ± SE (HL-60 cells [3]; HL-60, 100 µM) [%] | Metabolic activity, mean percentage ± SE (KMS-12-PE cells [4]; 25 µM) [%] | Metabolic activity, mean percentage ± SE (KMS-12-PE cells [4]; 50 µM) [%] | Metabolic activity, mean percentage ± SE (KMS-12-PE cells [4]; 100 µM) [%] | mean percentage of proliferation ± SE (HL-60 cells [5]; HL-60, 50 µM) [%] | mean percentage of proliferation ± SE (HL-60 cells [5]; HL-60, 100 µM) [%] | mean percentage of proliferation ± SE (KMS-12-PE cells [6]; 50 µM) [%] | mean percentage of proliferation ± SE (KMS-12-PE cells [6]; 100 µM) [%] | mean percentage of proliferation ± SE (AMO-1 cells [7]; AMO-1, 50 µM) [%] | mean percentage of proliferation ± SE (AMO-1 cells [7]; AMO-1, 100 µM) [%] | mean percentage of proliferation ± SE (MOLM-13 cells [8]; MOLM-13, 50 µM) [%] | mean percentage of proliferation ± SE (MOLM-13 cells [8]; MOLM-13, 100 µM) [%] | further results
COc1cc(O)c2c(=O)c(OC)c(-c3ccc(O)c(O)c3)oc2c1 [Compound 4, 3,7-di-O-methylquercetin] | 77.9 ± 4.3 | 63.6 ± 6.4 | 61.7 ± 6.9 | 70.2 ± 10.8 | 57.1 ± 10.5 | 46.9 ± 11.7 | 80.8 ± 5.9 | 69.8 ± 5.1 | 69.7 ± 5.5 | 103.0 ± 9.9 | 92.4 ± 8.7 | 82.4 ± 7.7 | 23.3 ± 6.5 | 18.5 ± 4.0 | 50.4 ± 5.2 | 29.7 ± 6.0 | 29.7 ± 4.1 | 19.2 ± 5.1 | 13.1 ± 2.7 | 8.8 ± 3.1 | Metabolic activity, mean percentage ± SE (MOLM-13 cells [1]; MOLM-13, 10 µM): 81.1 ± 4.2 %; Metabolic activity, mean percentage ± SE (AMO-1 cells [2]; AMO-1, 10 µM): 91.5 ± 9.9%; inhibition of metabolic activity (AMO-1 cells [2]; AMO-1, 100 µM): induced antimetabolic activity; Metabolic activity, mean percentage ± SE (HL-60 cells [3]; HL-60, 10 µM): 86.1 ± 6.1 %; Metabolic activity, mean percentage ± SE (KMS-12-PE cells [4]; 10 µM): 110.1 ± 10.2%; mean percentage of proliferation ± SE (HL-60 cells [5]; HL-60, 10 µM): 45.9 ± 8.9 %; mean percentage of proliferation ± SE (HL-60 cells [5]; HL-60, 25 µM): 37.6 ± 7.7 %; inhibition at 10 µM (HL-60 cells [5]; Homo sapiens, HL-60, 10 µM): > 50%; mean percentage of proliferation ± SE (KMS-12-PE cells [6]; 10 µM): 89.0 ± 5.2%; mean percentage of proliferation ± SE (KMS-12-PE cells [6]; 25 µM): 80.9 ± 3.2 %; mean percentage of proliferation ± SE (AMO-1 cells [7]; AMO-1, 10 µM): 73.3 ± 11.4 %; mean percentage of proliferation ± SE (AMO-1 cells [7]; AMO-1, 25 µM): 57.5 ± 9.2 %; inhibition at 10 µM (MOLM-13 cells [8]; Homo sapiens, MOLM-13, 10 µM): > 50%; mean percentage of proliferation ± SE (MOLM-13 cells [8]; MOLM-13, 10 µM): 42.3 ± 11.2 %; mean percentage of proliferation ± SE (MOLM-13 cells [8]; MOLM-13, 25 µM): 32.6 ± 5.5 %
COc1ccc(-c2cc(=O)c3c(O)cc(O)cc3o2)cc1O [Compound 3, diosmetin] | 62.5 ± 10.1 | 51.2 ± 7.2 | 41.2 ± 5.0 | 95.4 ± 2.4 | 76.8 ± 3.7 | 54.5 ± 5.5 | 93.2 ± 3.1 | 84.5 ± 2.2 | 56.7 ± 3.5 | 93.7 ± 4.9 | 81.3 ± 3.2 | 57.2 ± 4.7 | 59.9 ± 3.6 | 19.7 ± 3.7 | 38.2 ± 4.1 | 16.4 ± 2.4 | 42.0 ± 5.0 | 9.0 ± 0.8 | 11.7 ± 1.6 | 1.1 ± 0.4 | inhibition of metabolic activity (MOLM-13 cells [1]; MOLM-13, 100 µM): induced antimetabolic activity; mean percentage of proliferation ± SE (HL-60 cells [5]; HL-60, 25 µM): 71.4 ± 1.5 %; mean percentage of proliferation ± SE (KMS-12-PE cells [6]; 25 µM): 74.5 ± 6.9 %; mean percentage of proliferation ± SE (AMO-1 cells [7]; AMO-1, 25 µM): 65.9 ± 9.4 %; mean percentage of proliferation ± SE (MOLM-13 cells [8]; MOLM-13, 25 µM): 36.5 ± 2.9 %
COc1cc(O)c2c(=O)c(O)c(-c3cc(O)c(OC)c(OC)c3)oc2c1 [Compound 2, 7,3′,4′-trimetoxymyricetin] | 77.8 ± 2.1 | 65.4 ± 3.6 | 48.9 ± 5.5 | 81.3 ± 6.3 | 68.9 ± 4.1 | 41.8 ± 6.4 | 93.2 ± 7.8 | 79.6 ± 7.0 | 32.1 ± 2.8 | 87.9 ± 2.6 | 62.7 ± 2.6 | 44.5 ± 4.0 | 36.7 ± 2.5 | 2.5 ± 0.5 | 16.1 ± 0.9 | 2.6 ± 0.4 | 27.0 ± 4.0 | 4.8 ± 1.0 | 35.4 ± 4.2 | 3.8 ± 1.0 | inhibition at 100 µM (MOLM-13 cells [1]; Homo sapiens, MOLM-13, 100 µM): > 50%; inhibition at 100 µM (AMO-1 cells [2]; Homo sapiens, AMO1, AMO-1, 100 µM): > 50%; inhibition at 100 µM (HL-60 cells [3]; Homo sapiens, HL-60, 100 µM): > 50%; inhibition at 100 µM (KMS-12-PE cells [4]; Homo sapiens, 100 µM): > 50%; mean percentage of proliferation ± SE (HL-60 cells [5]; HL-60, 25 µM): 69.8 ± 2.5 %; mean percentage of proliferation ± SE (KMS-12-PE cells [6]; 25 µM): 64.5 ± 2.9 %; mean percentage of proliferation ± SE (AMO-1 cells [7]; AMO-1, 25 µM): 69.2 ± 5.3 %; mean percentage of proliferation ± SE (MOLM-13 cells [8]; MOLM-13, 25 µM): 77.8 ± 9.6%
COc1cc(O)c2c(=O)c(OC)c(-c3ccc(OC)c(OC)c3)oc2c1 [Compound 1, retusin] |  | 88.5 ± 3.8 | 80.5 ± 2.6 |  | 91.4 ± 8.9 | 81.0 ± 4.2 |  | 93.0 ± 4.4 | 85.9 ± 1.8 |  | 100.9 ± 4.1 | 95.1 ± 4.5 | 76.0 ± 3.0 | 65.6 ± 3.1 | 85.2 ± 1.8 | 73.0 ± 1.9 | 73.5 ± 7.5 | 66.9 ± 7.8 | 76.9 ± 4.7 | 57.8 ± 6.8 | 

Source: publication PMC12388523, “Flavonoids and Sesquiterpene Lactones from Lychnophora ericoides (Arnica-Do-Cerrado) and Their In Vitro Effects on Multiple Myeloma and Acute Myeloid Leukemia” (Metabolites, 2025)
